Assay results taken from patent US11986480B2, “Heterocyclic compound” (TOHOKU UNIVERSITY, priority 2017, dated 2024).

Biological target: Brd4 (Homo sapiens, UniProt O60885)
Assay: Test Example 3: HeLa cells, Western blot Brd4/actin (Testing Method C)
Assay type: cell-based
Parameters: endogenous in cells; host or cells: HeLa
Details: 24 hours, 1 or less = degradation promoted
Description: Test Example 3: Evaluation Using HeLa Cell (Testing Method C)
HeLa cells were inoculated to Dulbecco's Modified Eagle Medium (DMEM) and cultured for 24 hours. A test compound (specifically, compounds of Examples 47 to 52, 59 and 60) was added thereto at the final concentration shown in Table 2, followed by incubation for 24 hours under conditions of 37° C./5% CO2. The cells were washed with PBS three times and treated with a cell lysis solution containing a proteolytic enzyme inhibitor to obtain a cell extract. The cell extract was subjected to SDS-PAGE. After the electrophoresis, Brd4, FKBP12 or MetAP2 and actin were detected by Western blot. The ratio of the Brd4, FKBP12 or MetAP2/actin value of the drug-treated cells to the Brd4, FKBP12 or MetAP2/actin value of a control group in drug-untreated cells was regarded as an activity value. A value of 1 or less represents that degradation of Brd4, FKBP12 or MetAP2 was promoted.

| Compound | Activity value (Brd4/actin of drug-treated cells relative to drug-untreated control) (BRD4, 1 uM) | Activity value (Brd4/actin of drug-treated cells relative to drug-untreated control) (BRD4, 10 uM) |
| --- | --- | --- |
| Cc1sc2c(c1C)C(c1ccc(Cl)cc1)=N[C@@H](CC(=O)NCCOCCOCCOCCNC(=O)c1nc3c(=O)[nH]c(N)nc3n1Cc1ccc(F)cc1)c1nnc(C)n1-2 [Example 47, 2-Amino-N-(14-((6S)-4-(4-chlorophenyl)-2,3,9-trimethyl-6H-thieno[3,2-f][1,2,4]triazolo[4,3-a][1,4]diazepin-6-yl)-13-oxo-3,6,9-trioxa-12-azatetradec-1-yl)-9-(4-fluorobenzyl)-6-oxo-6,9-dihydro-1H-purine-8-carboxamide] | 0.4 | – |
| Cc1sc2c(c1C)C(c1ccc(Cl)cc1)=N[C@@H](CC(=O)NCCOCCOCCOCCNC(=O)c1cccc(-c3nc4c(=O)[nH]c(N)nc4n3Cc3ccc(F)cc3)c1)c1nnc(C)n1-2 [Example 48, 3-(2-Amino-9-(4-fluorobenzyl)-6-oxo-6,9-dihydro-1H-purin-8-yl)-N-(14-((6S)-4-(4-chlorophenyl)-2,3,9-trimethyl-6H-thieno[3,2-f][1,2,4]triazolo[4,3-a][1,4]diazepin-6-yl)-13-oxo-3,6,9-trioxa-12-azatetradec-1-yl)benzamide] | – | 0.8 |

Results, then the compound that gave them:

| Activity value (Brd4/actin of drug-treated cells relative to drug-untreated control) (BRD4, 1 uM) | Activity value (Brd4/actin of drug-treated cells relative to drug-untreated control) (BRD4, 10 uM) | Compound |
| --- | --- | --- |
| 0.8 | – | CC(=O)N[C@@H](CSc1nc2c(=O)[nH]c(N)nc2n1Cc1ccc(C)cc1)C(=O)NCCOCCOCCOCCNC(=O)C[C@@H]1N=C(c2ccc(Cl)cc2)c2c(sc(C)c2C)-n2c(C)nnc21 [Example 49, N^2-Acetyl-S-(2-amino-9-(4-methylbenzyl)-6-oxo-6,9-dihydro-1H-purin-8-yl)-N-(14-((6S)-4-(4-chlorophenyl)-2,3,9-trimethyl-6H-thieno[3,2-f][1,2,4]triazolo[4,3-a][1,4]diazepin-6-yl)-13-oxo-3,6,9-trioxa-12-azatetradec-1-yl)-L-cysteinamide] |
| 0.2 | – | CC(=O)N[C@@H](CSc1nc2c(=O)[nH]c(N)nc2n1Cc1ccc(Cl)cc1)C(=O)NCCOCCOCCOCCNC(=O)C[C@@H]1N=C(c2ccc(Cl)cc2)c2c(sc(C)c2C)-n2c(C)nnc21 [Example 50, N^2-Acetyl-S-(2-amino-9-(4-chlorobenzyl)-6-oxo-6,9-dihydro-1H-purin-8-yl)-N-(14-((6S)-4-(4-chlorophenyl)-2,3,9-trimethyl-6H-thieno[3,2-f][1,2,4]triazolo[4,3-a][1,4]diazepin-6-yl)-13-oxo-3,6,9-trioxa-12-azatetradec-1-yl)-L-cysteinamide] |
| – | 0.8 | Cc1sc2c(c1C)C(c1ccc(Cl)cc1)=N[C@@H](CC(=O)NCCOCCOCCOCCNC(=O)/C=C/c1nc3c(=O)[nH]c(N)nc3n1Cc1ccc(F)cc1)c1nnc(C)n1-2 [Example 52, (2E)-3-(2-Amino-9-(4-fluorobenzyl)-6-oxo-6,9-dihydro-1H-purin-8-yl)-N-(14-((6S)-4-(4-chlorophenyl)-2,3,9-trimethyl-6H-thieno[3,2-f][1,2,4]triazolo[4,3-a][1,4]diazepin-6-yl)-13-oxo-3,6,9-trioxa-12-azatetradec-1-yl)acrylamide] |
